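1) Cells in 96-well plates. 2) Compound, 48 h, 5 concentrations. 3) Linear interpolation between surrounding doses. 4) Unreached endpoint = highest concentration. TGI: total growth inhibition.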
Columns and labels:
Assay in all cases: NCI tumour cell line growth inhibition, 48 h
A549 NSCLC = test system: A549 NSCLC
CAKI-1 renal = test system: CAKI-1 renal
COLO 205 colon = test system: COLO 205 colon
HOP-62 NSCLC = test system: HOP-62 NSCLC
KM12 colon = test system: KM12 colon
MOLT-4 leukemia = test system: MOLT-4 leukemia
NCI-H460 lung = test system: NCI-H460 lung
OVCAR-3 ovarian = test system: OVCAR-3 ovarian
RXF 393 renal = test system: RXF 393 renal
SF-295 CNS = test system: SF-295 CNS
SF-539 CNS = test system: SF-539 CNS
SK-MEL-28 melanoma = test system: SK-MEL-28 melanoma
SK-MEL-5 melanoma = test system: SK-MEL-5 melanoma
SNB-19 CNS = test system: SNB-19 CNS
SNB-75 CNS = test system: SNB-75 CNS
CCRF-CEM leukemia = test system: CCRF-CEM leukemia
K-562 leukemia = test system: K-562 leukemia
UACC-62 melanoma = test system: UACC-62 melanoma
MCF7 breast = test system: MCF7 breast

Compound	TGI (A549 NSCLC) [µM]	TGI (CAKI-1 renal) [µM]	TGI (COLO 205 colon) [µM]	TGI (HOP-62 NSCLC) [µM]	TGI (KM12 colon) [µM]	TGI (MOLT-4 leukemia) [µM]	TGI (NCI-H460 lung) [µM]	TGI (OVCAR-3 ovarian) [µM]	TGI (RXF 393 renal) [µM]	TGI (SF-295 CNS) [µM]	TGI (SF-539 CNS) [µM]	TGI (SK-MEL-28 melanoma) [µM]	TGI (SK-MEL-5 melanoma) [µM]	TGI (SNB-19 CNS) [µM]	TGI (SNB-75 CNS) [µM]	TGI (CCRF-CEM leukemia) [µM]	TGI (K-562 leukemia) [µM]	TGI (UACC-62 melanoma) [µM]	TGI (MCF7 breast) [µM]
CCCCCCCCCC(=O)NC(CCC(=O)N(CCNC(=O)c1nc(-c2ccccc2)oc1-c1ccccc1)Cc1ccccc1)C(=O)O (stereo not drawn)	31.9	31.2	36.8	30.5	46.6	> 100	> 100	30.1	36.8	32.8	41.7	37.9	29.7	31.8	29.6	–	–	–	–
COc1ccc(/C=N/N=C(\N)NO)cc1F	85.6	46.5	> 100	72.5	> 100	> 100	> 100	> 100	73.2	87.6	60.1	> 100	18.5	> 100	89.5	> 100	56.4	36.3	–
O=C1C[C@@H]2[C@@H](c3ccccc3)[C@@H]3C(=O)c4ccccc4NC(=O)[C@H]3[C@]2(O)c2ccccc2N1	> 100	–	> 100	> 100	> 100	> 100	> 100	> 100	> 100	> 100	–	> 100	> 100	> 100	> 100	> 100	> 100	> 100	–
CCOC(=O)C1=C(O)C(=O)c2ccoc2C1=O	> 100	> 100	> 100	> 100	> 100	> 100	> 100	> 100	> 100	> 100	> 100	> 100	> 100	> 100	> 100	> 100	> 100	> 100	–
CC(Cc1ccccc1)N(C)Cc1nc(C2CCC([N+](=O)[O-])O2)no1 (stereo not drawn)	27.4	–	12.9	19.7	21	> 100	–	–	37.6	20.9	8.38	25.6	24.3	25.2	23.1	44.8	–	22.1	15.5
NCCCC(N=Cc1nc(-c2ccccc2)oc1O)C(=O)O (stereo not drawn)	> 100	–	> 100	> 100	–	> 100	> 100	> 100	> 100	> 100	> 100	> 100	> 100	> 100	> 100	> 100	> 100	> 100	–
